The source of these data is patent publication US11541050B2, “Pyrimidine derivatives for the treatment of viral infections” (JANSSEN SCIENCES IRELAND UC, priority 2011, dated 2023).

In test [1] the test system is human TLR7 mutant sequence comprising a deletion in the second leucine-rich repeat. The experiment in a line: TLR7 cellular NFκB-luc reporter assay, mutant TLR7 with deletion in the second leucine-rich repeat. In kind it is cell-based. The arrangement: unit not given here. The conditions noted are these: lowest effective concentration. In short, it runs like this: (§1)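 HEK293 cells transiently co-transfected with CMV-driven mutant TLR7 or TLR8 plasmid plus NFκB-luc reporter, cultured 48 h at 37 °C, then exposed to compound for 6 h at 37 °C, 5% CO2. Luciferase luminescence measured; dose-response curves from quadruplicates.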

Test [2] concerns human TLR8 mutant sequence comprising a deletion in the second leucine-rich repeat. The experiment in a line: TLR8 cellular NFκB-luc reporter assay, mutant TLR8 with deletion in the second leucine-rich repeat. The format is cell-based. Also noted: unit not given here. The conditions noted are these: lowest effective concentration. An outline of the steps: as §1
For orientation: In a reporter assay the amount or activity of a reporter protein is the signal.

Test [3] has as its system HCV replicon in Huh-7 luc/neo cells. The experiment in a line: Suppression of HCV replicon replication by conditioned media from compound-treated PBMC. The conditions noted are these: Hepatitis C virus, Huh-7; read-out: PBMC-HUH7_EC50. The format is cell-based, HCV type 1 b. An outline of the steps:
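Readout is firefly luciferase from an HCV genotype 1b NS3-NS5B bicistronic replicon in Huh-7 cells, measured 24 h after adding conditioned medium. That medium came from overnight culture of compound-treated PBMC (2×10^5/well, human AB serum, at least two donors). Interferon α-2a was the reference.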

Test [4] addresses T1, human TLR8 (wild type sequence) (Homo sapiens, UniProt Q9NR97).
T1 construct: expressed in transfected cells; host or cells: HEK293
T1 sequence (Q9NR97 27-1041): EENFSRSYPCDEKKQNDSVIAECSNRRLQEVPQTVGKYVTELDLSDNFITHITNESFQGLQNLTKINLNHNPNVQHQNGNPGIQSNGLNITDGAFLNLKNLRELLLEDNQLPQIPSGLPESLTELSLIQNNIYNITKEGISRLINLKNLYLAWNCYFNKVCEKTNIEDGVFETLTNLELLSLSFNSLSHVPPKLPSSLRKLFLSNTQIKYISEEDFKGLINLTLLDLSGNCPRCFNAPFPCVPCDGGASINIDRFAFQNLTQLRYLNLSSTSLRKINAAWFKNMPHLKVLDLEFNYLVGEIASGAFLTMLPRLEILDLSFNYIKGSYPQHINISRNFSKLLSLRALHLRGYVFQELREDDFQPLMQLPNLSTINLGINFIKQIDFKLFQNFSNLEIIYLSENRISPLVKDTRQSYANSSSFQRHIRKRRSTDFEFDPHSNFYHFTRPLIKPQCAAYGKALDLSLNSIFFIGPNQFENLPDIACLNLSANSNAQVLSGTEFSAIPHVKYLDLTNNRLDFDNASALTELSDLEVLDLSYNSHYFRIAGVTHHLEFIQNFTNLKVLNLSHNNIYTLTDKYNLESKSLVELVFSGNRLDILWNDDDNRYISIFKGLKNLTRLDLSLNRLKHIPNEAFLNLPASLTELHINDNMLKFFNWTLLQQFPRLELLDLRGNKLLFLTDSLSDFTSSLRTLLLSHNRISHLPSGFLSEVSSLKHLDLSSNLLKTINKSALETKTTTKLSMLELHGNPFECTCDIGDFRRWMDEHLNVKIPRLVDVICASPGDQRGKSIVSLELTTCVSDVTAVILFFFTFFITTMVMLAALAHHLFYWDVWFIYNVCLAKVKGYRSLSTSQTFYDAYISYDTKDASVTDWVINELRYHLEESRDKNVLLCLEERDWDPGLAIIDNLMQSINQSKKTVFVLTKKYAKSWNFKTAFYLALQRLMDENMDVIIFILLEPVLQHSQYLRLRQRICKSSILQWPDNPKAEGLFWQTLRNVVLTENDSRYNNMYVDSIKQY
The experiment in a line: TLR8 cellular NFκB-luc reporter assay, wild type TLR8. Also noted: unit not given here. In kind it is cell-based. The conditions noted are these: lowest effective concentration, wild type TLR8 (compounds 1-73). In short, it runs like this:
(§2)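 Luciferase signal read after 6 h compound incubation at 37 °C in HEK293 cells carrying transiently transfected TLR7 or TLR8 (wild type or LRR2-deletion) and NFκB-luc. Values are lowest effective concentrations from quadruplicate dose-response curves, effect ≥2-fold above assay SD.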

Test [5] deals with T2, human TLR7 (wild type sequence) (Homo sapiens, UniProt Q9NYK1).
T2 construct: expressed in transfected cells; host or cells: HEK293
T2 sequence (Q9NYK1 27-1049): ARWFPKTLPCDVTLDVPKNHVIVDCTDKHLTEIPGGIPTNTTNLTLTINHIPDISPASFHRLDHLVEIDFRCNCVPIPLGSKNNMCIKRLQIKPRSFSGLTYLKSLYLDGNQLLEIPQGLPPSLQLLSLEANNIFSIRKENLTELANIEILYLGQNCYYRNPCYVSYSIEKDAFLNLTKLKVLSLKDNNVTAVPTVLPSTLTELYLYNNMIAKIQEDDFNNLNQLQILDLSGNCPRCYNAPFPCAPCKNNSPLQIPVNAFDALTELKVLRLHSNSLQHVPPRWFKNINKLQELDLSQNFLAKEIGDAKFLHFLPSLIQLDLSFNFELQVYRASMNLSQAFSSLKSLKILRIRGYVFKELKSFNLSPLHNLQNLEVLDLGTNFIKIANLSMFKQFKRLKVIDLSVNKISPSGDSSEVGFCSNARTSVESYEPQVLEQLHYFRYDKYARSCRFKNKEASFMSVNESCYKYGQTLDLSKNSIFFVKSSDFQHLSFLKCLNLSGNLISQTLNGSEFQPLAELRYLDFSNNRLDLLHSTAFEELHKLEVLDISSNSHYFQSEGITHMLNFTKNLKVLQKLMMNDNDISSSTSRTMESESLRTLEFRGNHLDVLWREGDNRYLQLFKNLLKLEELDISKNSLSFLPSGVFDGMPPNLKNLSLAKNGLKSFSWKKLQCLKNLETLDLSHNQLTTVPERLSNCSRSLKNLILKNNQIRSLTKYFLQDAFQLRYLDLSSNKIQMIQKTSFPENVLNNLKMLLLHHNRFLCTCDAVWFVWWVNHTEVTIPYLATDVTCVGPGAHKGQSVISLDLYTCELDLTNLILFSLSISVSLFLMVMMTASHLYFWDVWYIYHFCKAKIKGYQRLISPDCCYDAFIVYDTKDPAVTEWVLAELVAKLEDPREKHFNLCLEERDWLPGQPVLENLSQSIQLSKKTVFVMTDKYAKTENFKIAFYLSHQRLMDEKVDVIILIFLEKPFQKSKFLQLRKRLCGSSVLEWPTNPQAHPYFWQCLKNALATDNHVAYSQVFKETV
The experiment in a line: TLR7 cellular NFκB-luc reporter assay, wild type TLR7. In kind it is cell-based. Also noted: unit not given here. Particulars: lowest effective concentration, wild type TLR7. In short, it runs like this: as §2

Setting [6] is: TLR7 mutant with deletion in second leucine-rich repeat.
[7] abbreviates: TLR8 mutant with deletion in second leucine-rich repeat.

Turning to `CCCCNc1nc(N)ncc1OCCCc1ccc(OC)cc1` [Compound 2], the TLR7-dIRR2_LEC in test [1] (setting [6]) is 0.02. For the same molecule, the TLR8-dIRR2_LEC in test [2] (setting [7]) came out at 0.31. Besides, in test [3], the EC50 turned out to be 40 nM. In test [4], this molecule returned a TLR8-wt_LEC of 1.34.
In the same order, the values of `CCCCNc1nc(N)nc(C)c1Oc1ccccc1` [Compound 3] are 21.69, 1.66, 10800 nM and 4.91.
For `CCCCNc1nc(N)ncc1OCc1ncc(C)c(OC)c1C` [Compound 6], in that order: 0.01, 0.10, 20 nM and 0.16.
In turn, `CCCCNc1nc(N)nc(C)c1Oc1ccccc1OC` [Compound 7] had a TLR7-dIRR2_LEC in test [1] (setting [6]) of 1.11. Also, the TLR8-dIRR2_LEC in test [2] (setting [7]) turned out to be 3.03. In test [3], the EC50 was determined as 3110 nM. The TLR8-wt_LEC in test [4] came to 5.84.
Consider `CCCCNc1nc(N)ncc1OCc1ccccc1F` [Compound 8], for which, in test [1] (setting [6]), the TLR7-dIRR2_LEC was 0.38. Also, the TLR8-dIRR2_LEC in test [2] (setting [7]) is 0.81. Also, the EC50 in test [3] was found to be 370 nM. The TLR8-wt_LEC in test [4] amounted to 1.88.
In the same order, the values of `CCCCNc1nc(N)ncc1OCCC(C)C` [Compound 9] are 1.55, 9.70, 9720 nM and 19.00.
In test [1] (setting [6]), `CCCCNc1nc(N)ncc1OCCCC` [Compound 10] came in with a TLR7-dIRR2_LEC of 1.28. The TLR8-dIRR2_LEC in test [2] (setting [7]) was 2.82. Further, the EC50 in test [3] is 1580 nM. In test [4], this molecule had a TLR8-wt_LEC of 8.14.
`CCCCNc1nc(N)ncc1OCc1ccc(Cl)c(Cl)c1` [Compound 11] came in with a TLR7-dIRR2_LEC in test [1] (setting [6]) of 0.60. Further, in test [2] (setting [7]), the TLR8-dIRR2_LEC was 3.50. The EC50 in test [3] was determined as 780 nM. In test [4], the TLR8-wt_LEC is listed as 4.52.
In the same order, the values of `CCCCNc1nc(N)ncc1OCc1ccc(C(=O)OC)cc1` [Compound 12] are 0.26, 1.12, 2760 nM and 1.49.
For `CCCCNc1nc(N)ncc1OCCc1ccccc1` [Compound 13], in that order: 2.26, 5.23, 2530 nM and 13.18.
For `CCCCNc1nc(N)ncc1OCc1ccccc1C` [Compound 14], in that order: 0.91, 0.91, 1810 nM and 4.92.
`CCCCNc1nc(N)ncc1OCc1ccccc1Cl` [Compound 15] displayed a TLR7-dIRR2_LEC in test [1] (setting [6]) of 0.17. Moreover, in test [2] (setting [7]), the TLR8-dIRR2_LEC turned out to be 1.06. The EC50 in test [3] was 170 nM. Also, the TLR8-wt_LEC in test [4] is reported as 2.31.
In the same order, the values of `C=CCCOc1cnc(N)nc1NCCCC` [Compound 16] are 0.49, 0.59, 790 nM and 2.68.
In the same order, the values of `CCCCNc1nc(N)ncc1OCCOC` [Compound 17] are 0.34, 0.67, 710 nM and 2.03.
`CCCCNc1nc(N)ncc1OCc1ccncc1` [Compound 18] showed a TLR7-dIRR2_LEC in test [1] (setting [6]) of 0.83. The TLR8-dIRR2_LEC in test [2] (setting [7]) is given as 0.85. In addition, the EC50 in test [3] was determined as 630 nM. This molecule had a TLR8-wt_LEC in test [4] of 1.87.
In the same order, the values of `C=CCCCCOc1cnc(N)nc1NCCCC` [Compound 20] are 0.79, 2.87, 1330 nM and 10.21.
In the same order, the values of `CCCCNc1nc(N)ncc1OCCO` [Compound 21] are 1.61, 0.64, 3080 nM and 2.69.
For the molecule `CCCCNc1nc(N)ncc1OCc1cccnc1` [Compound 22], the TLR7-dIRR2_LEC in test [1] (setting [6]) stood at 0.31. The molecule further gave a TLR8-dIRR2_LEC in test [2] (setting [7]) of 0.94. In addition, in test [3], the EC50 was 250 nM. This molecule showed a TLR8-wt_LEC in test [4] of 2.35.
The molecule `CCCCNc1nc(N)ncc1OCc1cccc(C(=O)OC)c1` [Compound 23] had a TLR7-dIRR2_LEC in test [1] (setting [6]) of 0.26. In test [2] (setting [7]), this molecule returned a TLR8-dIRR2_LEC of 1.45. Moreover, in test [3], the EC50 amounted to 10800 nM. In test [4], the TLR8-wt_LEC is listed as 2.55.
In the same order, the values of `CCCCNc1nc(N)ncc1OCCCO` [Compound 24] are 1.99, 1.50, 2750 nM and 2.42.
Molecule `CCCCNc1nc(N)ncc1OCc1ccccc1-c1ccccc1` [Compound 25] had a TLR7-dIRR2_LEC in test [1] (setting [6]) of 0.64. In test [2] (setting [7]), this molecule gave a TLR8-dIRR2_LEC greater than 25. Moreover, the EC50 in test [3] was found to be 1550 nM. The TLR8-wt_LEC in test [4] was greater than 25.
The molecule `CCCCNc1nc(N)ncc1OCC1CC1` [Compound 39] came in with a TLR7-dIRR2_LEC in test [1] (setting [6]) of 3.01. In test [2] (setting [7]), this molecule displayed a TLR8-dIRR2_LEC of 7.10. For the same molecule, in test [4], the TLR8-wt_LEC is 14.41.
In the same order, the values of `CCCCCCCCOc1cnc(N)nc1NCCCC` [Compound 40] are 2.69, greater than 25 and greater than 25.
Consider `CCCC[C@@H](C[C@@H](C)O)Nc1nc(N)ncc1OC` [Compound 300], for which the TLR7-dIRR2_LEC in test [1] came to 0.720. In addition, the TLR8-dIRR2_LEC in test [2] is on record as 0.475. Moreover, in test [5], the TLR7-wt_LEC was 1.740.
In turn, `CCC[C@@H](CCO)Nc1nc(N)ncc1OCCOC(C)C` [Compound 301] yielded a TLR7-dIRR2_LEC in test [1] of 2.640. Further, in test [2], the TLR8-dIRR2_LEC is reported as 0.534. In test [5], this molecule registered a TLR7-wt_LEC of 1.170.
For `CCC[C@@H](CCO)Nc1nc(N)ncc1OCc1ccncc1` [Compound 302], in that order: 0.487, 0.070 and 0.385.
